Measured values taken from US20070071699A1, “Benzylidene-1,3-thiazolidine-2,4-dione compounds for promoting and/or inducing and/or stimulating the pigmentation of keratin materials and/or for limiting their depigmentation and/or whitening” (L'OREAL, priority 2005, published 2007).
Each block holds one compound with its values, some of them ahead of it.

How the values were obtained:
[1] = system: tyrosinase activity of normal human epidermal melanocytes; experiment: Tyrosinase activity of normal human melanocytes in culture (72 h treatment, lysate, L-Dopa substrate, absorbance 450 nm); assay type: cell-based; settings: for Stimulation of the tyrosinase activity: 72 h
Method: a) Melanocyte Culture Conditions:
Normal human epidermal melanocytes are cultured (9th passage) in melanocyte growth medium M2 supplemented with:
Promocell C24300 supplements
Penicillin 50 IU/ml and streptomycin 50 μg/ml (Invitrogen) under standard temperature conditions (37° C.) at 5% CO2.
b) Preparation of the Solutions of the Test Compound:
The final titre of the prepared solutions is 10 mM. The final test concentrations range from 0.1 to 10 μM (PGE2) and 1 to 10 μM (15-PGDH inhibitors).
c)Principle of the Tests:
The tests performed consist in measuring the […] alone or combined with PGE2* on the overall activity of tyrosinase. *PGE2 is a pigmentation modulator that is deactivated by the enzyme 15-PGDH.
The melanocytes are cultured in 96-well plates up to confluence (culture conditions described in a) and the supernatant of each of the wells is then removed and replaced with the medium containing the compounds to be evaluated.
Thus (in triplicate), the 15-PGDH inhibitor alone at 1 μM and 10 μM or, for each of these first conditions, in the presence of 0.1 μM, 1 μM or 10 μM of PGE2.
The cultures are maintained under these various conditions for 72 h, the supernatants are then removed and the cell lawns are washed with a phosphate buffer (pH=7.2). The cells are lysed with a pH 7.2 phosphate buffer containing 1% Triton X100.
The tyrosinase activity of each of the lysates is then estimated against a fungal tyrosinase range (Sigma T7755).
The methodology implemented uses L-Dopa as reaction substrate (45 minutes at 37° C.); the formation of melanin is assessed by measuring the absorbance at 450 nm.
In this test, two references are also evaluated: kojic acid (a tyrosinase inhibitor introduced at 0.1% into the culture medium) and isobutyl methyl xanthine (IBMX), a phosphodiesterase inhibitor which, by limiting the catabolism of cAMP, contributes towards increasing the overall tyrosinase activity as assessed in this test.

[2] = target: T1, type-1 15-PGDH (Homo sapiens, UniProt P15428); experiment: Test on type-1 15-PGDH (spectrophotometric, NADH formation at 340 nm, PGE2 substrate); assay type: biochemical; settings: 37° C., pH 7.4 Tris buffer, 1.5 mM β-NAD, 50 μM Prostaglandin E2
T1 construct: made in house
T1 sequence (P15428 1-266): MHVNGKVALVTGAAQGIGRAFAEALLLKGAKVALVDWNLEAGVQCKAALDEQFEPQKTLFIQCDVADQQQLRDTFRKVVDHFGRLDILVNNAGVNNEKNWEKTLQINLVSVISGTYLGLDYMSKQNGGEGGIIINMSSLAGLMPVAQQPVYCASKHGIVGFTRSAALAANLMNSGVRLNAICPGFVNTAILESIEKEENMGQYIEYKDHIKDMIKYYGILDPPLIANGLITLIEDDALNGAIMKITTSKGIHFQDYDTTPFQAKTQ
Method: For the purposes of the test, this suspension is thawed and stored in ice.
0.965 ml of this buffer (brought to 37° C. beforehand) is introduced into the cuvette of a spectrophotometer (Perkin-Elmer, Lambda 2) thermostatically maintained at 37° C., the measuring wavelength of which is set at 340 nm. 0.035 mL of enzymatic suspension at 37° C. is introduced into the cuvette concomitantly with the recording (corresponding to an increase in the optical density at 340 nm). The maximum reaction rate is recorded.

Compound: CC(C)(C)c1ccc(Oc2ccccc2/C=C2\SC(=O)N=C2[O-])cc1.[Na+] [Compound 4, (5Z)-5-[2-(4-tert-butylphenoxy)benzylidene]-1,3-thiazolidine-2,4-dione]
Stimulation of the tyrosinase activity ([1]; Compound 4 1 μM + PGE2 0.1 μM): +27%
Stimulation of the tyrosinase activity ([1]; Compound 4 1 μM + PGE2 1 μM): +40%
Stimulation of the tyrosinase activity ([1]; Compound 4 1 μM + PGE2 10 μM): +32%
Stimulation of the tyrosinase activity ([1]; Compound 4 1 μM alone): +16%

IC50 [2]: 5 µM
Compound: O=C1NC(=O)/C(=C\c2ccc(OCc3cccc(Cl)c3)cc2)S1 [Compound 13]

IC50 [2]: 1.55 µM
Compound: O=C1NC(=O)/C(=C/c2ccccc2Oc2ccc(Br)c(F)c2)S1 [Compound 14]

Stimulation of the activity of tyrosinase ([1]; PGE2 alone at 0.1 μM): +3%
Stimulation of the activity of tyrosinase ([1]; PGE2 alone at 1 μM): +9%
Compound: CCCCC[C@H](O)/C=C/[C@H]1[C@H](O)CC(=O)[C@@H]1C/C=C\CCCC(=O)O [PGE2, Prostaglandin E2, reference compound]
